Source: patent US20240293551A1, “USE OF ST-TYPE LIPID COMPOUNDS IN PREPARATION OF NUCLEIC ACID DELIVERY REAGENT AND RELATED PRODUCT” (INSTITUTE OF BASIC MEDICAL SCIENCES CHINESE ACADEMY OF …, priority 2021, published 2024)

System: PGY-sRNA-26
Assay: In vivo delivery study of lipid-nucleic acid mixture (oral gavage, RT-qPCR of PGY-sRNA-26 in tissues)
Set-up: species or system mouse
Conditions: C57BL/6 mice, gavage, 100 μg lipid: 10 nmol PGY-sRNA-26, 12 hours; for oral delivery of single-stranded sRNA nucleic acids into mouse intestinal tissue: intestine
Summary of the method: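 C57BL/6 male mice (~6 weeks, 20-24 g), fasted 12 h, were gavaged with 10 nmol 3′-methylated PGY-sRNA-26 mixed with 100 μg lipid (heated 90° C. 15 min), versus saline or free sRNA (n=4 each). After 12 h, blood and tissues were Trizol-extracted; sRNA quantified by stem-loop RT-qPCR relative to U6.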

Structure (SMILES): C[C@]12C=CC(=O)C=C1CC[C@@H]1[C@@H]2C(=O)C[C@@]2(C)[C@H]1CC[C@]2(O)C(=O)CO [Lipid 564]
- oral delivery of single-stranded sRNA nucleic acids into mouse blood: can effectively orally deliver
- oral delivery of single-stranded sRNA nucleic acids into mouse brain tissue: can effectively orally deliver
- oral delivery of single-stranded sRNA nucleic acids into mouse femur: can effectively orally deliver
- oral delivery of single-stranded sRNA nucleic acids into mouse heart tissue: can effectively orally deliver
- oral delivery of single-stranded sRNA nucleic acids into mouse intestinal tissue: can effectively orally deliver
- oral delivery of single-stranded sRNA nucleic acids into mouse kidney tissue: can effectively orally deliver
- oral delivery of single-stranded sRNA nucleic acids into mouse liver tissue: can effectively orally deliver
- oral delivery of single-stranded sRNA nucleic acids into mouse lung tissue: can effectively orally deliver
- oral delivery of single-stranded sRNA nucleic acids into mouse spleen tissue: can effectively orally deliver
- oral delivery of single-stranded sRNA nucleic acids into mouse stomach tissue: can effectively orally deliver

Structure (SMILES): CCCCCCCCCCCCCCCCC(=O)O[C@H]1CC[C@@]2(C)C(=CC[C@H]3[C@@H]4CC[C@H]([C@H](C)CCCC(C)C)[C@@]4(C)CC[C@@H]32)C1 [Lipid 565]
- oral delivery of single-stranded sRNA nucleic acids into mouse blood: can effectively orally deliver
- oral delivery of single-stranded sRNA nucleic acids into mouse brain tissue: can effectively orally deliver
- oral delivery of single-stranded sRNA nucleic acids into mouse femur: can effectively orally deliver
- oral delivery of single-stranded sRNA nucleic acids into mouse heart tissue: can effectively orally deliver
- oral delivery of single-stranded sRNA nucleic acids into mouse intestinal tissue: can effectively orally deliver
- oral delivery of single-stranded sRNA nucleic acids into mouse kidney tissue: can effectively orally deliver
- oral delivery of single-stranded sRNA nucleic acids into mouse liver tissue: can effectively orally deliver
- oral delivery of single-stranded sRNA nucleic acids into mouse stomach tissue: can effectively orally deliver

Structure (SMILES): C[C@]12CCC(=O)C=C1CC[C@@H]1[C@@H]2[C@@H](O)C[C@@]2(C)[C@H]1CC[C@]2(O)C(=O)CO [Lipid 566]
- oral delivery of single-stranded sRNA nucleic acids into mouse blood: can effectively orally deliver
- oral delivery of single-stranded sRNA nucleic acids into mouse femur: can effectively orally deliver
- oral delivery of single-stranded sRNA nucleic acids into mouse heart tissue: can effectively orally deliver
- oral delivery of single-stranded sRNA nucleic acids into mouse intestinal tissue: can effectively orally deliver
- oral delivery of single-stranded sRNA nucleic acids into mouse kidney tissue: can effectively orally deliver
- oral delivery of single-stranded sRNA nucleic acids into mouse liver tissue: can effectively orally deliver
- oral delivery of single-stranded sRNA nucleic acids into mouse stomach tissue: can effectively orally deliver

Structure (SMILES): C[C@]12CC[C@H]3[C@@H](CCC4=CC(=O)CC[C@@]43CO)[C@@H]1CCC2=O [Lipid 567, 19-hydroxy-androstane-4-ene-3,17-dione (8R,9S,10S,13S,14S)-10-(hydroxymethyl)-13-methyl-2,6,7,8,9,11,12,14,15,16-decahydro-1H-cyclopenta[a]phenanthrene-3,17-dione]
- delivery efficacy over each tissue and blood tested (broad-spectrum delivery) (all tissues and blood tested): exhibited the best delivery efficacy
- oral delivery of single-stranded sRNA nucleic acids into mouse blood: can effectively orally deliver
- oral delivery of single-stranded sRNA nucleic acids into mouse brain tissue: can effectively orally deliver
- oral delivery of single-stranded sRNA nucleic acids into mouse femur: can effectively orally deliver
- oral delivery of single-stranded sRNA nucleic acids into mouse heart tissue: can effectively orally deliver
- oral delivery of single-stranded sRNA nucleic acids into mouse intestinal tissue: can effectively orally deliver
- oral delivery of single-stranded sRNA nucleic acids into mouse kidney tissue: can effectively orally deliver
- oral delivery of single-stranded sRNA nucleic acids into mouse liver tissue: can effectively orally deliver
- oral delivery of single-stranded sRNA nucleic acids into mouse lung tissue: can effectively orally deliver
- oral delivery of single-stranded sRNA nucleic acids into mouse spleen tissue: can effectively orally deliver
- oral delivery of single-stranded sRNA nucleic acids into mouse stomach tissue: can effectively orally deliver
